Measurements taken from ChEMBL document CHEMBL5104211, “Design and synthesis of bile acid derivatives and their activity against colon cancer” (RSC Med Chem, 2022).
pIC50: −log10 of the molar value. The source made the active and inactive calls. No cut-off for these calls is given here.

Tests used:
[1] = Cytotoxicity against human WI-38 cells assessed as inhibition of cell proliferation by MTT assay; assay type: toxicity, cell-based
[2] = test system: HCT-116; assay: Anticancer activity against human HCT-116 cells assessed as inhibition of cell proliferation at 20 to 40 micromol/L incubated for 24 to 72 hrs by MTT assay; assay type: functional, cell-based; conditions: dose 20-40 µmol/L, time 24-72 hrs, TDE = time-dependent effect
[3] = test system: HCT-116; assay: Inhibition of cell migration in human HCT-116 cells at 20 micromol/L and measured after 24 hrs by crystal violet staining based transwell assay; assay type: functional; conditions: HCT-116, 24 h, dose 20 µmol/L
[4] = test system: HCT-116; assay: Induction of apoptosis in human HCT-116 cells assessed as retraction of the nucleus at 30 micromol/L incubated for 48 hrs by Giemsa staining based fluorescence microscopy; assay type: functional, cell-based; conditions: dose 30.0 µmol/L
[5] = test system: LoVo; assay: Anticancer activity against human LoVo cells assessed as inhibition of cell proliferation by MTT assay; assay type: functional, cell-based
[6] = test system: HCT-116; assay: […] activity in human HCT-116 cells assessed as downregulation of Bcl-2 level at 30 micromol/L incubated for 48 hrs by Western blot analysis; assay type: functional, cell-based; conditions: dose 30.0 µmol/L
[7] = test system: HCT-116; assay: Anticancer activity against human HCT-116 cells assessed as decrease in size of colonies at 25 micromol/L and measured after 48 hrs by crystal violet dye based colony formation assay; assay type: functional, cell-based; conditions: dose 25.0 µmol/L
[8] = test system: HCT-116; assay: Induction of apoptosis in human HCT-116 cells assessed as apoptotic body formation at 30 micromol/L incubated for 48 hrs by Giemsa staining based fluorescence microscopy; assay type: functional, cell-based; conditions: dose 30.0 µmol/L
[9] = test system: HCT-116; assay: Induction of apoptosis in human HCT-116 cells assessed as contraction of cell volume at 30 micromol/L incubated for 48 hrs by Giemsa staining based fluorescence microscopy; assay type: functional; conditions: dose 30.0 µmol/L
[10] = test system: HCT-116; assay: Induction of mitochondrial membrane potential loss in human HCT-116 cells and measured after 48 hrs by TRME staining based flow cytometric analysis (reference value: 97.52%); assay type: functional
[11] = test system: SK-HEP1; assay: Anticancer activity against human SK-HEP1 cells assessed as inhibition of cell proliferation by MTT assay; assay type: functional, cell-based
[12] = test system: HCT-116; assay: Induction of apoptosis in human HCT-116 cells assessed as late apoptotic cells at 30 micromol/L incubated for 48 hrs by annexin V-FITC and propidium iodide staining based flow cytometry analysis (reference value: 7.13%); assay type: functional; conditions: dose 30 µmol/L, at 30 µM
[13] = test system: Huh-7; assay: Anticancer activity against human Huh-7 cells assessed as inhibition of cell proliferation by MTT assay; assay type: functional, cell-based
[14] = test system: HCT-116; assay: Induction of apoptosis in human HCT-116 cells assessed as necrotic cells at 30 micromol/L incubated for 48 hrs by annexin V-FITC and propidium iodide staining based flow cytometry analysis (reference value: 0.88%); assay type: functional; conditions: dose 30 µmol/L, at 30 µM
[15] = test system: HCT-116; assay: Induction of cell cycle arrest in human HCT-116 cells assessed as accumulation G2/M phase at 25 micromol/L and measured after 48 hrs by propidium iodide staining based flow cytometry analysis (Rvb= 11%); assay type: functional; conditions: dose 25 µmol/L, at 25 µM
[16] = test system: A549; assay: Anticancer activity against human A549 cells assessed as inhibition of cell proliferation by MTT assay; assay type: functional, cell-based
[17] = test system: MGC-803; assay: Anticancer activity against human MGC-803 cells assessed as inhibition of cell proliferation by MTT assay; assay type: functional, cell-based
[18] = test system: HCT-116; assay: Induction of apoptosis in human HCT-116 cells assessed as early apoptotic cells at 30 micromol/L incubated for 48 hrs by annexin V-FITC and propidium iodide staining based flow cytometry analysis (reference value: 2.69%); assay type: functional; conditions: dose 30 µmol/L, at 30 µM
[19] = test system: HCT-116; assay: Induction of apoptosis in human HCT-116 cells assessed as viable cells at 30 micromol/L incubated for 48 hrs by annexin V-FITC and propidium iodide staining based flow cytometry analysis (reference value: 89.29%); assay type: functional; conditions: HCT-116, 48 h, dose 30 µmol/L, read-out: Activity
[20] = test system: HCT-116; assay: Induction of apoptosis in human HCT-116 cells assessed as unclear cell rupture edges at 30 micromol/L incubated for 48 hrs by Giemsa staining based fluorescence microscopy; assay type: functional; conditions: dose 30.0 µmol/L
[21] = test system: SW480; assay: Anticancer activity against human SW480 cells assessed as inhibition of cell proliferation by MTT assay; assay type: functional, cell-based
[22] = test system: HCT-116; assay: Induction of apoptosis in human HCT-116 cells assessed as retraction of the cytoplasm at 30 micromol/L incubated for 48 hrs by Giemsa staining based fluorescence microscopy; assay type: functional, cell-based; conditions: dose 30.0 µmol/L
[23] = test system: HCT-116; assay: Anticancer activity in human HCT-116 cells assessed as downregulation of phosphorylated STAT3 level at 30 micromol/L incubated for 48 hrs by Western blot analysis; assay type: functional, cell-based; conditions: dose 30.0 µmol/L
[24] = test system: HT-29; assay: Anticancer activity against human HT-29 cells assessed as inhibition of cell proliferation by MTT assay; assay type: functional, cell-based
[25] = test system: HCT-116; assay: Anticancer activity against human HCT-116 cells assessed as inhibition of cell proliferation at 5 to 50 micromol/L incubated for 24 hrs by MTT assay; assay type: functional, cell-based; conditions: dose 5-50 µmol/L, DDE = dose-dependent effect
[26] = test system: HCT-116; assay: […] activity in human HCT-116 cells assessed as upregulation of cleaved caspase-3 level at 30 micromol/L incubated for 48 hrs by Western blot analysis; assay type: functional, cell-based; conditions: dose 30.0 µmol/L
[27] = test system: HCT-116; assay: Induction of ROS generation in human HCT-116 cells assessed as increase in intracellular ROS level incubated for 48 hrs by DCFH-DA staining based flow cytometric analysis (Rvb=73.65%); assay type: functional
[28] = test system: RKO; assay: Anticancer activity against human RKO cells assessed as inhibition of cell proliferation by MTT assay; assay type: functional, cell-based
[29] = test system: HCT-116; assay: Anticancer activity against human HCT-116 cells assessed as inhibition of cell proliferation by MTT assay; assay type: functional, cell-based
[30] = test system: HCT-116; assay: Anticancer activity against human HCT-116 cells assessed as decrease in number of colonies at 25 micromol/L and measured after 48 hrs by crystal violet dye based colony formation assay; assay type: functional, cell-based; conditions: dose 25.0 µmol/L
[31] = test system: RAW264.7; assay: Anti-inflammatory activity against mouse RAW264.7 cells assessed as downregulation of LPS-induced TNF-alpha level at 10 to 25 micromol/L incubated for 24 hrs in presence of LPS by ELISA; assay type: functional, cell-based; conditions: dose 10-25 µmol/L
[32] = test system: HCT-116; assay: Anticancer activity against human HCT-116 cells assessed as inhibition of cell proliferation at 20 micromol/L incubated for 24 hrs by MTT assay; assay type: functional; conditions: HCT-116, 24 h, dose 20 µmol/L
[33] = test system: HCT-116; assay: Anticancer activity against human HCT-116 cells assessed as inhibition of cell proliferation at 40 micromol/L incubated for 24 hrs by MTT assay; assay type: functional; conditions: HCT-116, 24 h, dose 40 µmol/L
[34] = test system: HCT-116; assay: Induction of apoptosis in human HCT-116 cells assessed as increase in number of apoptotic cells at 30 micromol/L incubated for 48 hrs by DAPI staining based fluorescence microscopy; assay type: functional, cell-based; conditions: dose 30.0 µmol/L
[35] = test system: RAW264.7; assay: Anti-inflammatory activity against mouse RAW264.7 cells assessed as inhibition of LPS-induced NO production incubated for 24 hrs in presence of LPS by Griess reagent-based assay; assay type: functional, cell-based; conditions: RAW264.7, 24 h
[36] = test system: HCT-116; assay: Inhibition of cell invasion in human HCT-116 cells at 20 micromol/L and measured after 24 hrs by crystal violet staining based transwell assay; assay type: functional; conditions: HCT-116, 24 h, dose 20 µmol/L

COC(=O)c1ccc(COC(=O)CC[C@@H](C)[C@H]2CC[C@H]3[C@@H]4[C@H](O)C[C@@H]5C[C@H](O)CC[C@]5(C)[C@H]4CC[C@]23C)cc1
pIC50 [1]: < 3.30 | inhibition [2]: Tde | inhibition at 20 µM [3]: 30% | Activity [4]: Active | pIC50 [5]: 4.55 | Activity [6]: Active | Activity [7]: Active | Activity [8]: Active | Activity [9]: Active | Activity [10]: 79.08% | pIC50 [11]: 4.30 | Activity [12]: 62.13% | pIC50 [13]: 4.13 | Activity [14]: 0.89% | Activity [15]: 63.98% | pIC50 [16]: 3.92 | pIC50 [17]: 4.50 | Activity [18]: 2.12% | viability at 30 µM [19]: 34.9% | Activity [20]: Active | pIC50 [21]: 4.44 | Activity [22]: Active | Activity [23]: Active | pIC50 [24]: 4.54 | inhibition [25]: Dde | Activity [26]: Active | Activity [27]: 85.75% | pIC50 [28]: 4.35 | pIC50 [29]: 4.54 | Activity [30]: Active

C[C@H](CCC(=O)OCc1ccc([N+](=O)[O-])cc1)[C@H]1CC[C@H]2[C@@H]3[C@H](O)C[C@@H]4C[C@H](O)CC[C@]4(C)[C@H]3C[C@H](O)[C@]12C
pIC50 [1]: < 3.30 | Activity [31]: Active | inhibition [2]: Tde | inhibition at 20 µM [3]: 80% | Activity [4]: Active | pIC50 [5]: 4.61 | inhibition at 20 µM [32]: < 40% | Activity [6]: Active | Activity [7]: Active | Activity [8]: Active | Activity [9]: Active | inhibition at 40 µM [33]: 90% | Activity [10]: 58.32% | pIC50 [11]: 4.14 | Activity [12]: 84.27% | Activity [34]: Active | pIC50 [13]: 4.20 | Activity [14]: 0.96% | pIC50 [35]: 4.69 | inhibition at 20 µM [36]: 80% | Activity [15]: 93.18% | pIC50 [16]: 4.34 | pIC50 [17]: 4.66 | Activity [18]: 0.93% | viability at 30 µM [19]: 13.8% | Activity [20]: Active | pIC50 [21]: 4.50 | Activity [22]: Active | Activity [23]: Active | pIC50 [24]: 4.46 | inhibition [25]: Dde | Activity [27]: 97.06% | pIC50 [28]: 4.53 | pIC50 [29]: 4.66 | Activity [30]: Active

COC(=O)c1ccc(COC(=O)CC[C@@H](C)[C@H]2CC[C@H]3[C@@H]4[C@H](O)C[C@@H]5C[C@H](O)CC[C@]5(C)[C@H]4C[C@H](O)[C@]23C)cc1
pIC50 [1]: < 3.30 | Activity [31]: Active | inhibition [2]: Tde | inhibition at 20 µM [3]: 80% | Activity [4]: Active | pIC50 [5]: 4.55 | Activity [6]: Active | Activity [7]: Active | Activity [8]: Active | Activity [9]: Active | Activity [10]: 71.17% | pIC50 [11]: 4.38 | Activity [12]: 74.4% | Activity [34]: Active | pIC50 [13]: 4.28 | Activity [14]: 1.19% | pIC50 [35]: 4.69 | inhibition at 20 µM [36]: 80% | Activity [15]: 89.39% | pIC50 [16]: 4.29 | pIC50 [17]: 4.54 | Activity [18]: 1.33% | viability at 30 µM [19]: 23.1% | Activity [20]: Active | pIC50 [21]: 4.50 | Activity [22]: Active | Activity [23]: Active | pIC50 [24]: 4.57 | inhibition [25]: Dde | Activity [26]: Active | Activity [27]: 91.33% | pIC50 [28]: 4.38 | pIC50 [29]: 4.60 | Activity [30]: Active

O=c1[nH]cc(F)c(=O)[nH]1 [FLUOROURACIL]
pIC50 [11]: 4.90 | Activity [12]: 69.38% | pIC50 [13]: 5.97 | Activity [14]: 0.59% | pIC50 [16]: 3.96 | pIC50 [17]: 5.22 | Activity [18]: 2.13% | viability at 30 µM [19]: 27.9% | pIC50 [21]: 4.66 | pIC50 [24]: 4.76 | pIC50 [28]: 4.90 | pIC50 [29]: 4.49
